In ChEMBL document CHEMBL3217656, “Identification of a potent salicylic acid-based inhibitor of tyrosine phosphatase PTP1B” (Medchemcomm, 2013):
The source made the active and inactive calls. The calls are words filed in the database; no cut-off is given here.

Columns and labels:
[1] = target: Receptor-type tyrosine-protein phosphatase F (Homo sapiens) (UniProt P10586); assay: Inhibition of human GST-tagged PTP-LAR D1D2 domain assessed as DiFMUP hydrolysis by fluorometric kinetic-based assay
[2] = target: T1, Tyrosine-protein phosphatase non-receptor type 1 (Homo sapiens) (UniProt P18031); assay: Mixed inhibition of human GST-tagged PTP1B catalytic domain assessed as rate of DiFMUP hydrolysis by lineweaver-burk plot analysis
T1 sequence (whole entry): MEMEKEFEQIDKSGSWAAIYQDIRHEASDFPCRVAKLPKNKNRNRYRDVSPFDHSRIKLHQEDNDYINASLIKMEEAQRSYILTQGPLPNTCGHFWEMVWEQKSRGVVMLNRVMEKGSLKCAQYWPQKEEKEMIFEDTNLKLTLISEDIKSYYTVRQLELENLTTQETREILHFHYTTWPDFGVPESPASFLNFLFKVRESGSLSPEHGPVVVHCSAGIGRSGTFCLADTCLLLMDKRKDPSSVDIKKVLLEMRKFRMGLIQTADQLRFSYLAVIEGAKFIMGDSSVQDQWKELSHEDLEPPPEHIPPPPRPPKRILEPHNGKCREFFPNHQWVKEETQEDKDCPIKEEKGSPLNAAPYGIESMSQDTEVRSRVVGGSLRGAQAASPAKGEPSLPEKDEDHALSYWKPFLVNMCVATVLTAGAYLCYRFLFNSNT

[3] = target: T2, Tyrosine-protein phosphatase non-receptor type 2 (Homo sapiens, UniProt P17706); assay: Inhibition of human GST-tagged TC-PTP catalytic domain assessed as DiFMUP hydrolysis by fluorometric kinetic-based assay
T2 sequence (P17706 whole entry): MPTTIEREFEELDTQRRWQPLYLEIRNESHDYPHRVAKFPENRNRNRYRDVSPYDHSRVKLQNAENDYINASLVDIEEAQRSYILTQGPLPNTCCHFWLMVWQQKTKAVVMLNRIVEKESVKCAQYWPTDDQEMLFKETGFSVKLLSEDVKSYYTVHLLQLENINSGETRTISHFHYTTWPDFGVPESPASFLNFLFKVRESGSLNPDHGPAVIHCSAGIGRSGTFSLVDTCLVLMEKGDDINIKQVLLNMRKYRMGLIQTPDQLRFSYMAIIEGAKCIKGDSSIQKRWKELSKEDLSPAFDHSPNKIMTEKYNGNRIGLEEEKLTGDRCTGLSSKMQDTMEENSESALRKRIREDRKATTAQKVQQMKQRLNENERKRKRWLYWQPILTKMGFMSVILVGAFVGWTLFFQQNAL

[4] = target: T3, Receptor-type tyrosine-protein phosphatase S (Homo sapiens, UniProt Q13332); assay: Inhibition of human GST-tagged PTP-sigma D1D2 domain assessed as DiFMUP hydrolysis by fluorometric kinetic-based assay
[5] = target: T4, Papain (Carica papaya, UniProt P00784); assay: Inhibition of papaya papain assessed as Z-Phe-Arg-pNA hydrolysis by fluorometric kinetic-based assay
T4 sequence (P00784 whole entry): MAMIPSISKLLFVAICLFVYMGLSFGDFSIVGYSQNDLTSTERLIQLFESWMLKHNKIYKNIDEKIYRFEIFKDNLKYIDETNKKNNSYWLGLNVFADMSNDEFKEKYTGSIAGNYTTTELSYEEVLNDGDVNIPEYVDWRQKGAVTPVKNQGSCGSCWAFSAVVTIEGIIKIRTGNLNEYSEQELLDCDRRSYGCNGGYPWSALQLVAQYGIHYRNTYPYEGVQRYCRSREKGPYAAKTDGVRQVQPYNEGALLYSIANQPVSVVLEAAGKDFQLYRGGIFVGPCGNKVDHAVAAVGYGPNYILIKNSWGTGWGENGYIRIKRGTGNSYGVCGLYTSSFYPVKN

[6] = target: T1, Tyrosine-protein phosphatase non-receptor type 1 (Homo sapiens); assay: Inhibition of human GST-tagged PTP1B catalytic domain assessed as DiFMUP hydrolysis at 10 uM by fluorometric kinetic-based assay
[7] = target: T3, Receptor-type tyrosine-protein phosphatase S; assay: Inhibition of human GST-tagged PTP-sigma D1D2 domain assessed as DiFMUP hydrolysis at 10 uM by fluorometric kinetic-based assay
[8] = Inhibition of human GST-tagged PRL2 A/S active mutant assessed as DiFMUP hydrolysis by fluorometric kinetic-based assay
[9] = target: T5, Tyrosine-protein phosphatase non-receptor type 2 (Homo sapiens) (UniProt P17706); assay: Inhibition of human GST-tagged TC-PTP catalytic domain assessed as DiFMUP hydrolysis at 10 uM by fluorometric kinetic-based assay
T5 sequence (whole entry): T2 sequence (P17706 whole entry)

[10] = species on record: Homo sapiens; assay: Inhibition of human GST-tagged PRL2 A/S active mutant assessed as DiFMUP hydrolysis at 10 uM by fluorometric kinetic-based assay
[11] = system: CHO; assay: Cytotoxicity against Chinese hamster CHO cells overexpressing IR assessed as cell proliferation rate at 0.4 to 10 uM by xCELLigence system; format: cell-based, Cricetulus griseus
[12] = system: CHO; assay: Inhibition of PTP1B in Chinese hamster CHO cells overexpressing IR assessed as insulin-stimulated IR phosphorylation treated for 3 hrs prior to insulin stimulation for 15 mins by western blot analysis; format: cell-based; conditions: Cricetulus griseus
[13] = target: T6, Dual specificity protein phosphatase 22 (Homo sapiens, UniProt Q9NRW4); assay: Inhibition of human GST-tagged full length MKPX assessed as DiFMUP hydrolysis by fluorometric kinetic-based assay
T6 sequence (Q9NRW4 whole entry): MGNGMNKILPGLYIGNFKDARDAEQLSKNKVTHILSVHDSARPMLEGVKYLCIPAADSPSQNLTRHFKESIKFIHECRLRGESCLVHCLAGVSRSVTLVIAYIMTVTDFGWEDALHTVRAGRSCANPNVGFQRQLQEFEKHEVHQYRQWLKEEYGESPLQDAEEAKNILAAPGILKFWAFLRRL

[14] = target: T7, Dual specificity protein phosphatase 22 (Homo sapiens) (UniProt Q9NRW4); assay: Inhibition of human GST-tagged full length MKPX assessed as DiFMUP hydrolysis at 10 uM by fluorometric kinetic-based assay
T7 sequence (whole entry): T6 sequence (Q9NRW4 whole entry)

[15] = target: Receptor-type tyrosine-protein phosphatase F (Homo sapiens) (UniProt P10586); assay: Inhibition of human GST-tagged PTP-LAR D1D2 domain assessed as DiFMUP hydrolysis at 10 uM by fluorometric kinetic-based assay
[16] = target: T8, Tyrosine-protein phosphatase non-receptor type 1 (Homo sapiens, UniProt P18031); assay: Inhibition of human GST-tagged PTP1B catalytic domain assessed as DiFMUP hydrolysis by fluorometric kinetic-based assay
T8 sequence (P18031 whole entry): T1 sequence (whole entry)

[17] = system: CHO; assay: Cytotoxicity against Chinese hamster CHO cells overexpressing IR assessed as slight reduction in cell viability at >50 uM by xCELLigence system; format: cell-based, Cricetulus griseus
[18] = target: T9, Papain (Carica papaya) (UniProt P00784); assay: Inhibition of papaya papain assessed as Z-Phe-Arg-pNA hydrolysis at 10 uM by fluorometric kinetic-based assay
T9 sequence (whole entry): T4 sequence (P00784 whole entry)

[19] = target: T8, Tyrosine-protein phosphatase non-receptor type 1; assay: Competitive inhibition of human GST-tagged PTP1B catalytic domain assessed as rate of DiFMUP hydrolysis by lineweaver-burk plot analysis
[20] = system: CHO; assay: Cytotoxicity against Chinese hamster CHO cells overexpressing IR assessed as cell proliferation rate at 50 uM by xCELLigence system; format: cell-based, Cricetulus griseus
[21] = target: T2, Tyrosine-protein phosphatase non-receptor type 2; assay: Inhibition of TC-PTP (unknown origin) expressed in Escherichia coli cells assessed as p-nitrophenyl phosphate hydrolysis by spectrophotometric analysis
[22] = target: T8, Tyrosine-protein phosphatase non-receptor type 1; assay: Inhibition of PTP1B (unknown origin) expressed in Escherichia coli cells assessed as p-nitrophenyl phosphate hydrolysis by spectrophotometric analysis

Sequence of Receptor-type tyrosine-protein phosphatase F (Homo sapiens) (P10586 whole entry, the tested form may be a part): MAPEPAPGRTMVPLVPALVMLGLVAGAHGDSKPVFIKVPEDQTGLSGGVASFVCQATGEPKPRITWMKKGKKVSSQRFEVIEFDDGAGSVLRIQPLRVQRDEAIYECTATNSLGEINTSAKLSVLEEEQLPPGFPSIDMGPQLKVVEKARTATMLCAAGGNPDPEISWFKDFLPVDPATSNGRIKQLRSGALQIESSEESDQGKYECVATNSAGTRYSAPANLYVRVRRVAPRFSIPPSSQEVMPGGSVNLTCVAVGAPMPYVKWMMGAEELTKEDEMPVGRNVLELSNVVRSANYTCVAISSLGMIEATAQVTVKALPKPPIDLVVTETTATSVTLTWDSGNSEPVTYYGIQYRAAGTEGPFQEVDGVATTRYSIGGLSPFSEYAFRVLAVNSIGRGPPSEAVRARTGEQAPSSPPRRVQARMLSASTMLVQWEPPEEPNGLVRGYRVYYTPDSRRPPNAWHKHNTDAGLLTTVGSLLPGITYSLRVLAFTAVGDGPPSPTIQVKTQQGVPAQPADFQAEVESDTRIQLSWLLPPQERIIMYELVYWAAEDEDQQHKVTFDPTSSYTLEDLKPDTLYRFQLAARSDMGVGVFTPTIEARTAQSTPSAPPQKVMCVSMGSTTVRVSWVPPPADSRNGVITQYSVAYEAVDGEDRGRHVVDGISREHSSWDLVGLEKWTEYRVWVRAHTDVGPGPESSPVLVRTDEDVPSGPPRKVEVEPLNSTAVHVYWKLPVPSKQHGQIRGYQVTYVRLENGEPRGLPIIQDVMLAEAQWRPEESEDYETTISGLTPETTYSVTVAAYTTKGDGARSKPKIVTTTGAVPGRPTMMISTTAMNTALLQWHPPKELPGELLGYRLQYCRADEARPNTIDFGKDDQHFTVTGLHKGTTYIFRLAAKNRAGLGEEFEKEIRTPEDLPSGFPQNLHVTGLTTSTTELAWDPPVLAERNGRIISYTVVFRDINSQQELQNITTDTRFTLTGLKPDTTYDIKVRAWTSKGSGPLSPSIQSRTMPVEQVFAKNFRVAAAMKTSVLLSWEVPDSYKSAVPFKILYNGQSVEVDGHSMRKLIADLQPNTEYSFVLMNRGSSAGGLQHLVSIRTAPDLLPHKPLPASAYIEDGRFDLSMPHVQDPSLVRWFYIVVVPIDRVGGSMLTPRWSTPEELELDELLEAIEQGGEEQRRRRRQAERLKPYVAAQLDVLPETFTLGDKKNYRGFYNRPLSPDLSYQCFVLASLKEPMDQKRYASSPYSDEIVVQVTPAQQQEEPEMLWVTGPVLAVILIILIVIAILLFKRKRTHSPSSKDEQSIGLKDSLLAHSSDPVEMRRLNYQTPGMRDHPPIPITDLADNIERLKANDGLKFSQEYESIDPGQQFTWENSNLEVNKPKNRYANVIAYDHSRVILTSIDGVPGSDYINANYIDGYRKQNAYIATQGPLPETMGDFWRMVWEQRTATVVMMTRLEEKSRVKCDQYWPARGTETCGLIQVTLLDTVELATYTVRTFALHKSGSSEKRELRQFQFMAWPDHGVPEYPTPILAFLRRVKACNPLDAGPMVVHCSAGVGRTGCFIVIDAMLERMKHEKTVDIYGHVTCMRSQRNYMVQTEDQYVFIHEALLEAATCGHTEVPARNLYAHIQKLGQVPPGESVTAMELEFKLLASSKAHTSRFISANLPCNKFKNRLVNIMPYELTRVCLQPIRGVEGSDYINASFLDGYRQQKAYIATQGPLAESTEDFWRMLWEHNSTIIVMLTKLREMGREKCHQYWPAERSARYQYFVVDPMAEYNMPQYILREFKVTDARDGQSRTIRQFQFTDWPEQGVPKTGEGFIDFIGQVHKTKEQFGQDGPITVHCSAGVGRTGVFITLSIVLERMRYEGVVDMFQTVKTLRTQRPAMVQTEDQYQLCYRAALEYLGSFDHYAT
T3 sequence (Q13332 whole entry, the tested form may be a part): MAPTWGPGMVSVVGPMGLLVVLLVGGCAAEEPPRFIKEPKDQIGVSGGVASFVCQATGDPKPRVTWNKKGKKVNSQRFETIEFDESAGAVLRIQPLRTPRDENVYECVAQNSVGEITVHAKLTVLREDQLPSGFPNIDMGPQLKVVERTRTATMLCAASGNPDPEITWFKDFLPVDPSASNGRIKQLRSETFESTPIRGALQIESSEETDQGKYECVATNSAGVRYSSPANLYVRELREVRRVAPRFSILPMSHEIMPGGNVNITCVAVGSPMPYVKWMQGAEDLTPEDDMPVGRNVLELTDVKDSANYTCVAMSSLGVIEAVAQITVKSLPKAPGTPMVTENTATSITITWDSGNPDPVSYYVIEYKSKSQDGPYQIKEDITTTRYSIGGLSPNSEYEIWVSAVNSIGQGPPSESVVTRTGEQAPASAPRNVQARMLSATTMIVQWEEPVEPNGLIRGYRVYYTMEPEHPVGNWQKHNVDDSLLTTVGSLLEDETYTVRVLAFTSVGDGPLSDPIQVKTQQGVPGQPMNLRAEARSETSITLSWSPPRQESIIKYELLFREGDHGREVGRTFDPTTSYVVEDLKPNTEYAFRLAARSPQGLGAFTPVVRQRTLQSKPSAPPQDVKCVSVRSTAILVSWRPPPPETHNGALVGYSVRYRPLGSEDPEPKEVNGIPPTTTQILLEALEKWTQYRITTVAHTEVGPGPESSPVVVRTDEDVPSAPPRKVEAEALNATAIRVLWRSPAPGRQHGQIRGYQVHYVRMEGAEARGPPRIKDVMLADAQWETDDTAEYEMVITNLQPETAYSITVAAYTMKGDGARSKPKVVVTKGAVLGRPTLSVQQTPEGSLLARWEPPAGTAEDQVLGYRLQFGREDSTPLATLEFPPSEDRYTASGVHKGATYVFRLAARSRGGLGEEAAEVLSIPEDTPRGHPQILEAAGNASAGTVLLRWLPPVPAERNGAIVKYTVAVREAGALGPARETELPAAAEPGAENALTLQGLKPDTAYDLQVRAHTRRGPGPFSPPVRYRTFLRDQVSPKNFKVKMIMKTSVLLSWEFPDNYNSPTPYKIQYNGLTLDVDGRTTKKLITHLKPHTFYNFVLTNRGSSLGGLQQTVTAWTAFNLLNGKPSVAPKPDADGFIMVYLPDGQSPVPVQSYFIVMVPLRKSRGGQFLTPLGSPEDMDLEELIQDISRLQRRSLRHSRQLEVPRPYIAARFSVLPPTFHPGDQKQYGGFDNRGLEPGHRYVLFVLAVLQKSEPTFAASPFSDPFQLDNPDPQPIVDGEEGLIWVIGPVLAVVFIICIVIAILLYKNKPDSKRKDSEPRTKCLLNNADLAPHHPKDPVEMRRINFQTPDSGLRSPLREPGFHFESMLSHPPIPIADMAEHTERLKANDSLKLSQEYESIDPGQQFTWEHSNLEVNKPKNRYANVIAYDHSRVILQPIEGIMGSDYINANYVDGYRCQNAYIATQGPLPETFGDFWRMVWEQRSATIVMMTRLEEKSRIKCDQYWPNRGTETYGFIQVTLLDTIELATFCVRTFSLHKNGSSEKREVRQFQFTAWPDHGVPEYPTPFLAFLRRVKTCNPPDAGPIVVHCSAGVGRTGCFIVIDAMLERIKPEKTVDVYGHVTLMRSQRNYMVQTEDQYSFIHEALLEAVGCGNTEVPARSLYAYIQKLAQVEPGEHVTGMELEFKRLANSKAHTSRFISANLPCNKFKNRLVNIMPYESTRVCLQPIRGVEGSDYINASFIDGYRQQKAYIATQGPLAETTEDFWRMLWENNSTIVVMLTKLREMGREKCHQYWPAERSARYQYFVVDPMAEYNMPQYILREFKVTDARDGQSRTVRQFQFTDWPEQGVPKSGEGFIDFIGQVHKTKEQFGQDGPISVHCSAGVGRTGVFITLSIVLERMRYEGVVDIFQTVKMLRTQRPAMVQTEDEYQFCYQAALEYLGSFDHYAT

SMILES	inhibition [1]	IC50 [3] [µM]	IC50 [4] [µM]	IC50 [5] [µM]	inhibition [6] [%]	inhibition [7] [%]	IC50 [8] [µM]	inhibition [9] [%]	inhibition [10]	Activity [11]	inhibition [12]	IC50 [13] [µM]	inhibition [14]	inhibition [15]	IC50 [16] [µM]	inhibition [18]	further results
CN(CC(=O)N(Cc1ccc(C2CCCCC2)cc1)c1ccc(C(=O)O)c(O)c1)S(=O)(=O)c1cccc2cccnc12	inactive	4.8	4.3	> 10	> 80	> 80	> 50	> 80	inactive	Non-toxic	Dose-dependent effect	> 10	inactive	inactive	6.2	inactive	inhibition [2]: Active; Activity [17]: Toxic
CN(C)c1cccc2c(S(=O)(=O)N(C)CC(=O)N(Cc3ccc(C4CCCCC4)cc3)c3ccc(C(=O)O)c(O)c3)cccc12	inactive	5.1	3.6	> 10	> 80	> 80	> 50	> 80	inactive	Non-toxic	Dose-dependent effect	> 10	inactive	inactive	4.9	inactive	Ki [19]: 4 µM; Activity [17]: Toxic
Cc1ccc(S(=O)(=O)N(C)CC(=O)N(Cc2ccc(-c3ccc(-c4cccc(C#N)c4)cc3)cc2)c2ccc(C(=O)O)c(O)c2)cc1	–	5.1	6.1	> 10	> 80	> 80	> 50	> 80	inactive	–	–	> 10	inactive	inactive	5	inactive	–
CN(CC(=O)N(Cc1ccc(C2CCCCC2)cc1)c1ccc(C(=O)O)c(O)c1)S(=O)(=O)c1cccc2ccccc12	inactive	3.9	5.2	> 10	> 80	> 80	> 50	> 80	inactive	Non-toxic	Dose-dependent effect	> 10	inactive	inactive	5.2	inactive	Activity [20]: Toxic; Ki [19]: 2.1 µM
O=C(Cn1cc(-c2c(-c3ccccc3)oc3cc(O)c(C(=O)O)cc23)nn1)Nc1ccc(N2CCOCC2)cc1	–	–	–	–	–	–	–	–	–	–	–	–	–	–	–	–	IC50 [21]: 22 µM; IC50 [22]: 19 µM
COC(=O)c1cccc(-c2ccc(-c3ccc(CN(C(=O)CN(C)S(=O)(=O)c4ccc(C)cc4)c4ccc(C(=O)O)c(O)c4)cc3)cc2)c1	–	5.6	6.3	> 10	> 80	> 80	> 50	> 80	inactive	–	–	> 10	inactive	inactive	4.8	inactive	–
Cc1ccc(S(=O)(=O)N(C)CC(=O)N(Cc2ccc(-c3ccc(-c4cccc(C(N)=O)c4)cc3)cc2)c2ccc(C(=O)O)c(O)c2)cc1	–	4.4	4.6	> 10	> 80	> 80	> 50	> 80	inactive	–	–	> 10	inactive	inactive	4.6	inactive	–
